Assay results published in article PMC7317717, “Electrophysiological Characterization of Transport Across Outer‐Membrane Channels from Gram‐Negative Bacteria in Presence of Lipopolysaccharides” (Angewandte Chemie (International Ed. in English), 2020).
Where a name gives a salt, the structure may show the parent alone.

How the values were obtained:
Assay in all cases: single-channel electrophysiology, planar lipid bilayer, ion current blockage events
Assay type in all cases: binding
OmpF (OmpF-WT) [1] = target: T1, OmpF (OmpF-WT) (Escherichia coli, UniProt P02931); conditions: purified OmpF without LPS; 250 uM compound; 200 mM KCl, 20 mM MES, pH 6.0; negative voltage (-50 mV stated for the OMV values)
T1 construct: purified wild-type OmpF, mature porin, homotrimer, reconstituted in planar lipid bilayer; OMV form overexpressed in E. coli BL21(DE3)omp8
T1 sequence (P02931 23-362): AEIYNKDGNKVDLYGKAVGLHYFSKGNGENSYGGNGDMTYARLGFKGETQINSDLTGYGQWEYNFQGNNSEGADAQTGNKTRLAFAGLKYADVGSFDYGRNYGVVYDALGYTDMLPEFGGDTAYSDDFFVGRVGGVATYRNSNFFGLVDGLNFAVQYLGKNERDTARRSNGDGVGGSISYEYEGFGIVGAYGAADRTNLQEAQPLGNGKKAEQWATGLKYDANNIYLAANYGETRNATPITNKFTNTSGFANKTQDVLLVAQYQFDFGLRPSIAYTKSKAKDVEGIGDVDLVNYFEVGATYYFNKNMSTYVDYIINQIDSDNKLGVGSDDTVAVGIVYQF

OmpF (OmpF-WT) [2] = target: T1, OmpF (OmpF-WT); conditions: purified OmpF without LPS; 250 uM compound; 200 mM KCl, 20 mM MES, pH 6.0; negative voltage (-50 mV stated for the OMV values); remark: listed apart in the source
Source text: single-channel electrophysiology, planar lipid bilayer, ion current blockage events on OmpF (OmpF-WT) | Higher event rates are found using purified OmpF.

OmpF (OmpF-WT) [3] = target: T1, OmpF (OmpF-WT); conditions: purified OmpF; 10 uM compound; 1 M KCl, 20 mM MES, pH 6

Row | Structure (SMILES) | k off (OmpF (OmpF-WT) [1]) [s⁻¹] | k on (OmpF (OmpF-WT) [2]) | event rate (OmpF (OmpF-WT) [3])
1 | CCN1CCN(c2cc3c(cc2F)c(=O)c(C(=O)O)cn3C2CC2)CC1 [Enrofloxacin] | 500 | 72,000 s^-1 M^-1 | –
2 | NC[C@H]1O[C@H](O[C@H]2[C@H](O)[C@@H](O[C@H]3O[C@H](CO)[C@@H](O)[C@H](N)[C@H]3O)[C@H](N)C[C@@H]2N)[C@H](O)[C@@H](O)[C@@H]1O [Kanamycin sulfate] | – | – | Kanamycin sulfate permeation for both batches of preparation
